Where two headings read alike, the source gives them in different places.
Tests used:
[1] = biological target: EGFR (d746-750 T790M C797S) (Homo sapiens (Human), UniProt P00533, C797S/DEL746-750/T790M); experiment: Biochemical EGFR inhibition assay (TR-FRET, poly-GT substrate), EGFR d746-750 T790M C797S; details: 100 μM ATP
Method: (§1) Biochemical EGFR Inhibition Assays
(§2) Initially, the inhibitory effect of compounds according to the invention is measured in biochemical assays which measure the phosphorylation activity of EGFR enzyme forms on poly-GT substrate in the presence of different concentrations of ATP (5 μM and 100 μM final assay concentration).
(§3) The following enzyme forms of EGFR are representative examples that can be used in these assays at the given concentrations:
(§4) For the chosen highest assay concentration of 100 μM, 150 nL of compound solution is transferred from a 10 mM DMSO compound stock solution. A series of eleven fivefold dilutions per compound is transferred to the assay plate, compound dilutions are tested in duplicates. DMSO is added as backfill to a total volume of 150 nL. The assay runs on a fully automated robotic system.
(§5) These biochemical EGFR enzyme form compound dose-response assays quantify the kinase activity via phosphorylation of a tagged poly-GT substrate. The results of the assay are provided as IC50 values.

[2] = biological target: EGFR del19 T790M C797S protein in Ba/F3 cells (Homo sapiens, UniProt P00533, C797S/DEL746-750/T790M); experiment: pEGFR assay (AlphaScreen Surefire, EGFR Tyr1068 phosphorylation); type: cell-based
Summary of the method: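 Transduced Ba/F3 cells, puromycin-selected and grown IL-3 independent, were treated with compound at 60.000 cells/well for 4 h at 37° C. Lysis followed for 20 min at room temperature, and Tyr1068 phospho-EGFR in lysate was detected after 2 h dark incubation. Results are IC50 values.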

[3] = biological target: EGFR (mutated) 695-1022, T790M, C797S, L858R (Homo sapiens (Human), UniProt P00533, C797S/L858R/T790M); experiment: Biochemical EGFR inhibition assay (TR-FRET, poly-GT substrate), EGFR T790M C797S L858R
Method: as §1, §2, §3, §4, §5

EGFR wt = EGFR wt (Homo sapiens (Human), UniProt P00533); experiment: Biochemical EGFR inhibition assay (TR-FRET, poly-GT substrate), EGFR wt
Method: as §1, §2, §3, §4, §5

[4] = read-out: LR_TM_CS (100 μM ATP) IC50, 100 μM ATP
[5] = read-out: wt (100 μM ATP) IC50, 100 μM ATP
[6] = read-out: LR_TM_CS (5 μM ATP) IC50, 5 μM ATP
[7] = read-out: wt (5 μM ATP) IC50, 5 μM ATP

Chain of EGFR (mutated) 695-1022, T790M, C797S, L858R (P00533 695-1022 T790M/C797S/L858R): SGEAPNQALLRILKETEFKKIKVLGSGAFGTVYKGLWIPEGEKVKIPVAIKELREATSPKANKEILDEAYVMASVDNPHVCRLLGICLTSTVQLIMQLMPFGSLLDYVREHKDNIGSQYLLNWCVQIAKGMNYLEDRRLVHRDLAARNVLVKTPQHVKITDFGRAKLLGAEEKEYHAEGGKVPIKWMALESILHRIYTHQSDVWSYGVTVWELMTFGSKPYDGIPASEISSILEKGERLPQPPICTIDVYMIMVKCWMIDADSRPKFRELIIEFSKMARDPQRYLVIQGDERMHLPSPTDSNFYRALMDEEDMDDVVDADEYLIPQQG
Chain of EGFR wt (P00533 25-1210): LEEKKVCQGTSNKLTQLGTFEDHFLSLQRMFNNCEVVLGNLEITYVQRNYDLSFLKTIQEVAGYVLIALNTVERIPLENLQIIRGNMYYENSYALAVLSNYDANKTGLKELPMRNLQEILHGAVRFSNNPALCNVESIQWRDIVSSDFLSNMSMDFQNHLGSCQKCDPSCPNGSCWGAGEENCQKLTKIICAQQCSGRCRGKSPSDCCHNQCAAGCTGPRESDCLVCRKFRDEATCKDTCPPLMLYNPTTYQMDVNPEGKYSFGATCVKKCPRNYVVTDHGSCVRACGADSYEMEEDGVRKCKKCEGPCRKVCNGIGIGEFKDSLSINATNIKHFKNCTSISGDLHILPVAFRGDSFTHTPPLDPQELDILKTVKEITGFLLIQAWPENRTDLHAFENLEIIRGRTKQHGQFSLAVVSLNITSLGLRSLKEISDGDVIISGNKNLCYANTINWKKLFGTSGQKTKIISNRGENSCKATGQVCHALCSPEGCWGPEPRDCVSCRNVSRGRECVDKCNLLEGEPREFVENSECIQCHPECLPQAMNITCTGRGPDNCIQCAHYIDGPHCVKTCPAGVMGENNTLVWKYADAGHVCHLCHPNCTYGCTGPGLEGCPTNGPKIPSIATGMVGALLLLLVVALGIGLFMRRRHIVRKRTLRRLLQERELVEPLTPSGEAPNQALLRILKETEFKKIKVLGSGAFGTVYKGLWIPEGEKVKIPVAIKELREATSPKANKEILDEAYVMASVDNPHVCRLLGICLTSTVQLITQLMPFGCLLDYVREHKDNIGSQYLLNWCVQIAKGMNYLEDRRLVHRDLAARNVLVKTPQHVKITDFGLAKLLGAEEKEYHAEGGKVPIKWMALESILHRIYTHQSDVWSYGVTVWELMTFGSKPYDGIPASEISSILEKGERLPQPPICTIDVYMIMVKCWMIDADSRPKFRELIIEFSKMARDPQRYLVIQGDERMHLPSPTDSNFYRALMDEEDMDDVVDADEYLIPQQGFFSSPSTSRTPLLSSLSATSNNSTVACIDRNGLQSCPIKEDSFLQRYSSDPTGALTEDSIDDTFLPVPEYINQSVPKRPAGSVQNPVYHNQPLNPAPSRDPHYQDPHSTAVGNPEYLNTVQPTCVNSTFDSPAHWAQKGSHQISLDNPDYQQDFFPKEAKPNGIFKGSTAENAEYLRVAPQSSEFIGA
Chain of EGFR del19 T790M C797S protein in Ba/F3 cells (P00533 with tags, fused parts or gaps C797S/DEL746-750/T790M limits assumed): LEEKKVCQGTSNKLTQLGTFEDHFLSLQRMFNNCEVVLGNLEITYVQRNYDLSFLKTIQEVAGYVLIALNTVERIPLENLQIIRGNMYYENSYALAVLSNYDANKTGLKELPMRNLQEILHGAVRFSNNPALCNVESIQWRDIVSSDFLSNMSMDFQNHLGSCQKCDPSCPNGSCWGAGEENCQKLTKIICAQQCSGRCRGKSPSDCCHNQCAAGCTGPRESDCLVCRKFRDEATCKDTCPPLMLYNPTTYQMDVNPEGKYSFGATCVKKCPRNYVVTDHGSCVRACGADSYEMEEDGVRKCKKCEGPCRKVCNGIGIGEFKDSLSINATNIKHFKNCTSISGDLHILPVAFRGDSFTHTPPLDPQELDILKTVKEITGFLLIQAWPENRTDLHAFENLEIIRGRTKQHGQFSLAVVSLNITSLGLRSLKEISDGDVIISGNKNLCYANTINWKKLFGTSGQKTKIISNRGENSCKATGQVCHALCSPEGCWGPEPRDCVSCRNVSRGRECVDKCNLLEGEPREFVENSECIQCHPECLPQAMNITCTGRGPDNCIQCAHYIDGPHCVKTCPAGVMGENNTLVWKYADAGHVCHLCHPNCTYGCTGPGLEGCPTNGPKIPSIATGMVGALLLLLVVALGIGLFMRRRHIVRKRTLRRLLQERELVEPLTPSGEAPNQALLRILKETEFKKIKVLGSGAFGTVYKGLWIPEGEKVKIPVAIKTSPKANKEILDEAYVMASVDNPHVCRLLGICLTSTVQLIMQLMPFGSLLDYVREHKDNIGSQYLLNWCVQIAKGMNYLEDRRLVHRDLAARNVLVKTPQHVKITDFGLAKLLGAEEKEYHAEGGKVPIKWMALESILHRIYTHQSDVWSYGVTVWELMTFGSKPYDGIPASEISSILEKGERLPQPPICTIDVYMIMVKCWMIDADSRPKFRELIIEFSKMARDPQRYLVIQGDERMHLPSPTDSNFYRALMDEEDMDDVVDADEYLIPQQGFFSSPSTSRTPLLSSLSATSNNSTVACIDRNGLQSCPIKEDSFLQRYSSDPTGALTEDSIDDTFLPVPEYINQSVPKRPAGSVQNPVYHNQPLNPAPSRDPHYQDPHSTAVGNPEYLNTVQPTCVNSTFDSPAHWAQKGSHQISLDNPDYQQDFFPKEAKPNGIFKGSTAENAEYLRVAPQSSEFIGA
Chain of EGFR (d746-750 T790M C797S) (P00533 other isoform, or with tags, fused parts or gaps T790M/C797S/del 1-694/del 746-750 limits assumed): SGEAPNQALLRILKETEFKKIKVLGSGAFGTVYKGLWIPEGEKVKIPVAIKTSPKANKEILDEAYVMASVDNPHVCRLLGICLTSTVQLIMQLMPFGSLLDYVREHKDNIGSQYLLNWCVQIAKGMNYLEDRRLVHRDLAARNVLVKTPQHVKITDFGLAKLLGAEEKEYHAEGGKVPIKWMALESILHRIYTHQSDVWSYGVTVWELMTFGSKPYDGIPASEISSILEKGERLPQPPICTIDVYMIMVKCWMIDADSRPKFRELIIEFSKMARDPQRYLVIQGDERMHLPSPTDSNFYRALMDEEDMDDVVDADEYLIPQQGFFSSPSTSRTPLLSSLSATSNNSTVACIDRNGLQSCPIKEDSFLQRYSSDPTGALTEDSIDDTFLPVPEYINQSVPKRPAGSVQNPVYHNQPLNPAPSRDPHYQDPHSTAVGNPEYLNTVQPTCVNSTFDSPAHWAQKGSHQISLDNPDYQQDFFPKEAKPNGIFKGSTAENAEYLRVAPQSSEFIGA

SMILES	IC50 [1] [nM]	IC50 [2] [nM]	IC50 [3, 4] [nM]	IC50 (EGFR wt; [5]) [nM]	IC50 [3, 6] [nM]	IC50 (EGFR wt; [7]) [nM]
Cn1cc(-c2cc(C(=O)/N=c3\[nH]c4ccccc4n3CC(C)(C)O)ccn2)cn1 [I-001]	71.7	43	–	–	–	–
O=C(/N=c1\[nH]c2ccccc2n1C1CCCC1)c1ccnc(-c2cccnc2)c1 [I-002]	4.6	9	67.4	2510	–	–
Cn1cc(-c2cc(C(=O)/N=c3\[nH]c4ccccc4n3C3CCCC3)ccn2)cn1 [I-003]	9.9	29	61.7	4080	–	–
Cc1c(-c2cc(C(=O)/N=c3\[nH]c4ccccc4n3C3CCCC3)ccn2)cnn1C [I-004]	4.7	13	38.5	1950	–	–
Cc1nn(C)cc1-c1cc(C(=O)/N=c2\[nH]c3ccccc3n2C2CCCC2)ccn1 [I-005]	14.2	11	105	236	–	–
CC(=O)N1CCC(c2ccc3c(c2)[nH]/c(=N\C(=O)c2ccnc(-c4cnn(C)c4)c2)n3C2CCCC2)CC1 [I-008]	5	6	39.6	> 4000	1.5	185
Cn1cc(-c2cc(C(=O)/N=c3\[nH]c4ccccc4n3[C@H]3CC[C@@H](O)C3)ccn2)cn1 [I-009]	49	30	184	12400	–	–
CN1CCC(c2ccc3c(c2)[nH]/c(=N\C(=O)c2ccnc(-c4cnn(C)c4)c2)n3C2CCCC2)CC1 [I-010]	2.9	20	17.4	5110	–	–
CN1CCC(c2ccc3c(c2)[nH]/c(=N\C(=O)c2ccnc(-c4cccnc4)c2)n3C2CCCC2)CC1 [I-011]	2.5	77	27.7	7060	–	–
CC(C)Cn1/c(=N/C(=O)c2ccnc(-c3cnn(C)c3)c2)[nH]c2ccccc21 [I-012]	10.5	25	64.6	> 100000	1.9	403
Cn1cc(-c2cc(C(=O)/N=c3\[nH]c4ccccc4n3[C@H]3CC[C@H](O)C3)ccn2)cn1 [I-013]	18.4	13	76.5	3770	–	–
CCCn1/c(=N/C(=O)c2ccnc(-c3cnn(C)c3)c2)[nH]c2ccccc21 [I-014]	48.8	94	146	> 100000	–	–
Cc1c(-c2cc(C(=O)/N=c3\[nH]c4ccccc4n3CC(C)(C)O)ccn2)cnn1C [I-017]	14.2	7	111	9960	3.9	1880
Cn1cc(-c2cc(C(=O)/N=c3\[nH]c4ccccc4n3C3CCC3)ccn2)cn1 [I-019]	26.3	37	102	4370	–	–
CN1CCC(c2ccc3c(c2)[nH]/c(=N\C(=O)c2ccnc(-c4cnn(C)c4)c2)n3CC(C)(C)O)CC1 [I-021]	4.9	4	27.7	876	–	–
CN1CCN(c2ccc3c(c2)[nH]/c(=N\C(=O)c2ccnc(-c4cnn(C)c4)c2)n3CC(C)(C)O)CC1 [I-022]	61.8	71	169	5620	–	–
CC(C)(O)Cn1/c(=N/C(=O)c2ccnc(-c3cnn4ccccc34)c2)[nH]c2ccccc21 [I-023]	7.7	7	78.2	> 100000	–	–
Cc1c(-c2cc(C(=O)/N=c3\[nH]c4cc(N5CCN(C)CC5)ccc4n3CC(C)(C)O)ccn2)cnn1C [I-025]	27.9	28	113	7890	–	–
CC(=O)N1CCC(c2ccc3c(c2)[nH]/c(=N\C(=O)c2ccnc(-c4cnn(C)c4C)c2)n3CC(C)(C)O)CC1 [I-026]	4.4	7	34.5	1150	–	–
COc1ccncc1-c1cc(C(=O)/N=c2\[nH]c3cc(C4CCN(C)CC4)ccc3n2CC(C)(C)O)ccn1 [I-028]	2.4	1	4.2	591	–	–
CN(C)Cc1ccc2c(c1)[nH]/c(=N\C(=O)c1ccnc(-c3cnn(C)c3)c1)n2CC(C)(C)O [I-029]	72.4	58	190	14800	–	–

SMILES	IC50 [1] [nM]	IC50 [2] [nM]	IC50 [3, 4] [nM]	IC50 (EGFR wt; [5]) [nM]	IC50 [3, 6] [nM]	IC50 (EGFR wt; [7]) [nM]
CN1CCC(c2ccc3c(c2)[nH]/c(=N\C(=O)c2ccnc(-n4cnc5cccc(F)c54)c2)n3CC(C)(C)O)CC1 [I-030]	3.4	6	25.5	1960	–	–
COc1ccncc1-c1cc(C(=O)/N=c2\[nH]c3cc(C4CCN(C(C)=O)CC4)ccc3n2CC(C)(C)O)ccn1 [I-031]	1.2	1	–	–	–	–
CN1CCC(c2ccc3c(c2)[nH]/c(=N\C(=O)c2ccnc(-c4cnn5cccnc45)c2)n3CC(C)(C)O)CC1 [I-032]	0.6	1	3	366	–	–
Cc1ccc2c(c1)[nH]/c(=N\C(=O)c1ccnc(-c3cnn(C)c3)c1)n2CC(C)(C)O [I-033]	8.6	9	91.6	9510	–	–
Cc1ccc2[nH]/c(=N\C(=O)c3ccnc(-c4cnn(C)c4)c3)n(CC(C)(C)O)c2c1 [I-034]	22.8	21	196	3950	–	–
CN1CCC(c2ccc3c(c2)[nH]/c(=N\C(=O)c2ccnc(-c4cnn(C)c4)c2)n3CC(C)(C)O)CC1=O (stereo not drawn) [I-035]	5.6	79	79.3	6670	–	–
Cn1cc(-c2cc(C(=O)/N=c3\[nH]c4ccccc4n3[C@H]3CC[C@H](O)CC3)ccn2)cn1 [I-036]	4	3	40.1	1250	1.6	407
Cn1cc(-c2cc(C(=O)/N=c3\[nH]c4ccccc4n3CCC(C)(C)O)ccn2)cn1 [I-037]	14.2	15	171	> 100000	–	–
Cn1cc(-c2cc(C(=O)/N=c3\[nH]c4ccccc4n3CC(C)(C)CO)ccn2)cn1 [I-038]	15.8	27	234	40800	–	–
CC(C)(O)Cn1/c(=N/C(=O)c2ccnc(-n3cnc4ccccc43)c2)[nH]c2ccccc21 [I-039]	36	9	508	> 100000	–	–
CC(C)(O)Cn1/c(=N/C(=O)c2ccnc(-c3cccnc3)c2)[nH]c2cc(C3CCCOC3)ccc21 (stereo not drawn) [I-052]	6.6	6	189	> 100000	–	–
Cn1cc(-c2cc(C(=O)/N=c3\[nH]c4cc(C5CCCOC5)ccc4n3CC(C)(C)O)ccn2)cn1 (stereo not drawn) [I-053]	8.7	2	94.1	5740	–	–
COC(=O)Cc1ccc2c(c1)[nH]/c(=N\C(=O)c1ccnc(-c3cccnc3)c1)n2CC(C)(C)O [I-054]	4.1	7	104	79700	–	–
COC(=O)Cc1ccc2c(c1)[nH]/c(=N\C(=O)c1ccnc(-c3cnn(C)c3)c1)n2CC(C)(C)O [I-055]	7.3	10	86.9	26300	–	–
Cn1cc(-c2cc(C(=O)/N=c3\[nH]c4ccccc4n3[C@H]3CC[C@@H](O)CC3)cc(N)n2)cn1 [I-211]	–	1	–	–	0.3	249
Cn1cc(-c2cc(C(=O)/N=c3\[nH]c4ccccc4n3C3CCCS(=O)(=O)C3)ccn2)cn1 (stereo not drawn) [I-212]	–	22	–	–	2.5	318
Cc1cc(C(=O)/N=c2\[nH]c3ccc(CN4CCOCC4)cc3n2CC(C)(C)O)cc(-c2cnn(C)c2)n1 [I-213]	–	45	–	–	54.1	> 100000
Cc1cc(C(=O)/N=c2\[nH]c3ccc(CN4CCN(C)CC4)cc3n2CC(C)(C)O)cc(-c2cnn(C)c2)n1 [I-214]	–	38	–	–	10.1	9660
CNc1cc(C(=O)/N=c2\[nH]c3ccccc3n2[C@H]2CC[C@@H](O)CC2)cc(-c2cnn(C)c2)n1 [I-215]	–	14	–	–	4.9	8380
Cn1cc(-c2cc(C(=O)/N=c3\[nH]c4ccccc4n3[C@H]3CC[C@@H](O)CC3)cc(CF)n2)cn1 [I-216]	–	17	–	–	8.1	2670
Cc1cc(C(=O)/N=c2\[nH]c3ccccc3n2C2CCCS(=O)(=O)C2)cc(-c2cnn(C)c2)n1 (stereo not drawn) [I-217]	–	75	–	–	33	> 100000
